Test results as given in patent US6358885B1, “Substituted phenylheterocyclic herbicides” (Mississippi State University, priority 1992, dated 2002).

Key:
Experiment in all cases: Test B preemergence/postemergence greenhouse plant response rating 0 to 10
[1] = tested on: soybean; type: in vivo, Glycine max; details: 0 to 10 scale
Summary of the method: (§1)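 Test chemicals, dissolved in a non-phytotoxic solvent, were applied to soil at planting and, at the same time, over foliage of seedlings at the one to four leaf stage.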

[2] = tested on: velvetleaf; type: in vivo, Abutilon theophrasti; details: 0 to 10 scale
Summary of the method: as §1

[3] = tested on: wild buckwheat; type: in vivo, Polygonum convolvulus; details: 0 to 10 scale
Summary of the method: as §1

[4] = tested on: lambsquarters; type: in vivo, Chenopodium album; details: 0 to 10 scale
Summary of the method: as §1

[5] = tested on: giant foxtail; type: in vivo, Setaria faberii; details: 0 to 10 scale
Summary of the method: as §1

[6] = tested on: crabgrass; type: in vivo, Digitaria spp.; details: PREEMERGENCE, 0 to 10 scale
Summary of the method: as §1

[7] = tested on: rice; type: in vivo, Oryza sativa; details: 0 to 10 scale
Summary of the method: as §1

[8] = tested on: wheat; type: in vivo, Triticum aestivum; details: 0 to 10 scale
Summary of the method: as §1

[9] = tested on: blackgrass; type: in vivo, Alopecurus myosuroides; details: 0 to 10 scale
Summary of the method: as §1

[10] = tested on: purple nutsedge; type: in vivo, Cyperus rotundus; details: 0 to 10 scale
Summary of the method: as §1

[11] = tested on: cocklebur; type: in vivo, Xanthium pensylvanicum; details: 0 to 10 scale
Summary of the method: as §1

[12] = tested on: sorghum; type: in vivo, Sorghum bicolor; details: 0 to 10 scale
Summary of the method: as §1

[13] = tested on: rape; type: in vivo, Brassica napus; details: 0 to 10 scale
Summary of the method: as §1

[14] = tested on: barley; type: in vivo, Hordeum vulgare; details: 0 to 10 scale
Summary of the method: as §1

[15] = tested on: bedstraw; type: in vivo, Galium aparine; details: 0 to 10 scale
Summary of the method: as §1

[16] = tested on: morningglory; type: in vivo, Ipomoea hederacea; details: 0 to 10 scale
Summary of the method: as §1

[17] = tested on: cotton; type: in vivo, Gossypium hirsutum; details: 0 to 10 scale
Summary of the method: as §1

[18] = tested on: sugar beet; type: in vivo, Beta vulgaris; details: 0 to 10 scale
Summary of the method: as §1

[19] = tested on: wild oat; type: in vivo, Avena fatua; details: 0 to 10 scale
Summary of the method: as §1

[20] = tested on: cheatgrass; type: in vivo, Bromus secalinus; details: 0 to 10 scale
Summary of the method: as §1

[21] = tested on: chickweed; type: in vivo, Stellaria media; details: 0 to 10 scale
Summary of the method: as §1

[22] = tested on: barnyardgrass; type: in vivo, Echinochloa crus-galli; details: 0 to 10 scale
Summary of the method: as §1

[23] = tested on: corn; type: in vivo, Zea mays; details: 0 to 10 scale
Summary of the method: as §1

SMILES: CC(=O)c1cc(-c2nn3c(c2Cl)CCCC3)c(F)cc1Cl [Compound 45]
- Plant response rating, Soybean ([1]; POSTEMERGENCE, Rate 50 g/ha): 8
- Plant response rating, Soybean ([1]; PREEMERGENCE, Rate 50 g/ha): 0
- Plant response rating, Soybean ([1]; Rate 200 g/ha, POSTEMERGENCE): 8
- Plant response rating, Soybean ([1]; Rate 200 g/ha, PREEMERGENCE): 2
- Plant response rating, Velvetleaf ([2]; POSTEMERGENCE, Rate 50 g/ha): 9
- Plant response rating, Velvetleaf ([2]; PREEMERGENCE, Rate 50 g/ha): 2
- Plant response rating, Velvetleaf ([2]; Rate 200 g/ha, POSTEMERGENCE): 10
- Plant response rating, Velvetleaf ([2]; Rate 200 g/ha, PREEMERGENCE): 0
- Plant response rating, Wild buckwheat ([3]; POSTEMERGENCE, Rate 50 g/ha): 10
- Plant response rating, Wild buckwheat ([3]; PREEMERGENCE, Rate 50 g/ha): 3
- Plant response rating, Wild buckwheat ([3]; Rate 200 g/ha, POSTEMERGENCE): 10
- Plant response rating, Wild buckwheat ([3]; Rate 200 g/ha, PREEMERGENCE): 10
- Plant response rating, Lambsquarter ([4]; POSTEMERGENCE, Rate 50 g/ha): 10
- Plant response rating, Lambsquarter ([4]; PREEMERGENCE, Rate 50 g/ha): 10
- Plant response rating, Lambsquarter ([4]; Rate 200 g/ha, POSTEMERGENCE): 10
- Plant response rating, Lambsquarter ([4]; Rate 200 g/ha, PREEMERGENCE): 10
- Plant response rating, Giant foxtail ([5]; POSTEMERGENCE, Rate 50 g/ha): 5
- Plant response rating, Giant foxtail ([5]; PREEMERGENCE, Rate 50 g/ha): 2
- Plant response rating, Giant foxtail ([5]; Rate 200 g/ha, POSTEMERGENCE): 5
- Plant response rating, Giant foxtail ([5]; Rate 200 g/ha, PREEMERGENCE): 5
- Plant response rating, Crabgrass ([6]; Rate 50 g/ha): 0
- Plant response rating, Crabgrass ([6]; Rate 200 g/ha): 6
- Plant response rating, Rice ([7]; POSTEMERGENCE, Rate 50 g/ha): 6
- Plant response rating, Rice ([7]; PREEMERGENCE, Rate 50 g/ha): 0
- Plant response rating, Rice ([7]; Rate 200 g/ha, POSTEMERGENCE): 6
- Plant response rating, Rice ([7]; Rate 200 g/ha, PREEMERGENCE): 3
- Plant response rating, Wheat ([8]; POSTEMERGENCE, Rate 50 g/ha): 3
- Plant response rating, Wheat ([8]; PREEMERGENCE, Rate 50 g/ha): 2
- Plant response rating, Wheat ([8]; Rate 200 g/ha, POSTEMERGENCE): 8
- Plant response rating, Wheat ([8]; Rate 200 g/ha, PREEMERGENCE): 5
- Plant response rating, Blackgrass ([9]; POSTEMERGENCE, Rate 50 g/ha): 6
- Plant response rating, Blackgrass ([9]; POSTEMERGENCE, Rate 200 g/ha): 3
- Plant response rating, Blackgrass ([9]; PREEMERGENCE, Rate 50 g/ha): 2
- Plant response rating, Blackgrass ([9]; Rate 200 g/ha, PREEMERGENCE): 3
- Plant response rating, Nutsedge ([10]; PREEMERGENCE, Rate 50 g/ha): 0
- Plant response rating, Nutsedge ([10]; Rate 200 g/ha, POSTEMERGENCE): 6
- Plant response rating, Nutsedge ([10]; Rate 200 g/ha, PREEMERGENCE): 0
- Plant response rating, Cocklebur ([11]; POSTEMERGENCE, Rate 50 g/ha): 7
- Plant response rating, Cocklebur ([11]; POSTEMERGENCE, Rate 200 g/ha): 8
- Plant response rating, Cocklebur ([11]; PREEMERGENCE, Rate 50 g/ha): 0
- Plant response rating, Cocklebur ([11]; Rate 200 g/ha, PREEMERGENCE): 4
- Plant response rating, Sorghum ([12]; POSTEMERGENCE, Rate 50 g/ha): 4
- Plant response rating, Sorghum ([12]; PREEMERGENCE, Rate 50 g/ha): 0
- Plant response rating, Sorghum ([12]; Rate 200 g/ha, POSTEMERGENCE): 5
- Plant response rating, Sorghum ([12]; Rate 200 g/ha, PREEMERGENCE): 1
- Plant response rating, Rape ([13]; POSTEMERGENCE, Rate 50 g/ha): 3
- Plant response rating, Rape ([13]; PREEMERGENCE, Rate 50 g/ha): 2
- Plant response rating, Rape ([13]; Rate 200 g/ha, POSTEMERGENCE): 10
- Plant response rating, Rape ([13]; Rate 200 g/ha, PREEMERGENCE): 7
- Plant response rating, Barley ([14]; POSTEMERGENCE, Rate 50 g/ha): 4
- Plant response rating, Barley ([14]; POSTEMERGENCE, Rate 200 g/ha): 3
- Plant response rating, Barley ([14]; PREEMERGENCE, Rate 50 g/ha): 0
- Plant response rating, Barley ([14]; Rate 200 g/ha, PREEMERGENCE): 2
- Plant response rating, Bedstraw ([15]; POSTEMERGENCE, Rate 50 g/ha): 8
- Plant response rating, Bedstraw ([15]; POSTEMERGENCE, Rate 200 g/ha): 10
- Plant response rating, Bedstraw ([15]; PREEMERGENCE, Rate 50 g/ha): 2
- Plant response rating, Bedstraw ([15]; Rate 200 g/ha, PREEMERGENCE): 4
- Plant response rating, Morningglory ([16]; POSTEMERGENCE, Rate 50 g/ha): 8
- Plant response rating, Morningglory ([16]; PREEMERGENCE, Rate 50 g/ha): 2
- Plant response rating, Morningglory ([16]; Rate 200 g/ha, POSTEMERGENCE): 9
- Plant response rating, Morningglory ([16]; Rate 200 g/ha, PREEMERGENCE): 4
- Plant response rating, Cotton ([17]; POSTEMERGENCE, Rate 50 g/ha): 10
- Plant response rating, Cotton ([17]; POSTEMERGENCE, Rate 200 g/ha): 10
- Plant response rating, Cotton ([17]; PREEMERGENCE, Rate 50 g/ha): 0
- Plant response rating, Cotton ([17]; Rate 200 g/ha, PREEMERGENCE): 0
- Plant response rating, Sugar beet ([18]; POSTEMERGENCE, Rate 50 g/ha): 7
- Plant response rating, Sugar beet ([18]; PREEMERGENCE, Rate 50 g/ha): 7
- Plant response rating, Sugar beet ([18]; Rate 200 g/ha, POSTEMERGENCE): 10
- Plant response rating, Sugar beet ([18]; Rate 200 g/ha, PREEMERGENCE): 9
- Plant response rating, Wild oat ([19]; POSTEMERGENCE, Rate 50 g/ha): 2
- Plant response rating, Wild oat ([19]; PREEMERGENCE, Rate 50 g/ha): 2
- Plant response rating, Wild oat ([19]; Rate 200 g/ha, POSTEMERGENCE): 3
- Plant response rating, Cheatgrass ([20]; POSTEMERGENCE, Rate 50 g/ha): 4
- Plant response rating, Cheatgrass ([20]; POSTEMERGENCE, Rate 200 g/ha): 6
- Plant response rating, Cheatgrass ([20]; PREEMERGENCE, Rate 50 g/ha): 2
- Plant response rating, Cheatgrass ([20]; Rate 200 g/ha, PREEMERGENCE): 2
- Plant response rating, Chickweed ([21]; POSTEMERGENCE, Rate 50 g/ha): 8
- Plant response rating, Chickweed ([21]; POSTEMERGENCE, Rate 200 g/ha): 7
- Plant response rating, Chickweed ([21]; PREEMERGENCE, Rate 50 g/ha): 3
- Plant response rating, Chickweed ([21]; Rate 200 g/ha, PREEMERGENCE): 2
- Plant response rating, Barnyardgrass ([22]; POSTEMERGENCE, Rate 50 g/ha): 3
- Plant response rating, Barnyardgrass ([22]; POSTEMERGENCE, Rate 200 g/ha): 5
- Plant response rating, Barnyardgrass ([22]; PREEMERGENCE, Rate 50 g/ha): 0
- Plant response rating, Barnyardgrass ([22]; Rate 200 g/ha, PREEMERGENCE): 5
- Plant response rating, Corn ([23]; POSTEMERGENCE, Rate 50 g/ha): 5
- Plant response rating, Corn ([23]; POSTEMERGENCE, Rate 200 g/ha): 5
- Plant response rating, Corn ([23]; PREEMERGENCE, Rate 50 g/ha): 0
- Plant response rating, Corn ([23]; Rate 200 g/ha, PREEMERGENCE): 1
